From patent US6228889A, “Methods for treatment of conditions associated with lactosylceramide” (priority 1999, dated 2001)
Structures can show the parent of a compound that is named as a salt. Where two headings read alike, the source gives them in different places.

Tests used:
Mac-1 (CD11b/CD18) = conditions: for Mac-1 expression on PMNs, other GSL: 100 nmol/L, 20 minutes
Eahy 926 cells = assay: Superoxide production by intact Eahy 926 (lucigenin chemiluminescence); assay type: cell-based, human; conditions: 5 μM LacCer; DPI 10 μM 30 minutes, NAC 15 mM 30 minutes, SOD exogenously added (200 U/ml), allopurinol
ICAM-1 = conditions: for effect on LacCer mediated stimulation of ICAM-1 expression: 5 μM LacCer 4 hours, DPI 10 μM 30 minutes, NAC 15 mM 30 minutes, PDTC 100 μM 1 hour
GlcT-1 = biological target: T1, GlcT-1 (Homo sapiens, UniProt Q16739); conditions: reported in literature; cited from earlier work
T1 sequence (Q16739 1-394): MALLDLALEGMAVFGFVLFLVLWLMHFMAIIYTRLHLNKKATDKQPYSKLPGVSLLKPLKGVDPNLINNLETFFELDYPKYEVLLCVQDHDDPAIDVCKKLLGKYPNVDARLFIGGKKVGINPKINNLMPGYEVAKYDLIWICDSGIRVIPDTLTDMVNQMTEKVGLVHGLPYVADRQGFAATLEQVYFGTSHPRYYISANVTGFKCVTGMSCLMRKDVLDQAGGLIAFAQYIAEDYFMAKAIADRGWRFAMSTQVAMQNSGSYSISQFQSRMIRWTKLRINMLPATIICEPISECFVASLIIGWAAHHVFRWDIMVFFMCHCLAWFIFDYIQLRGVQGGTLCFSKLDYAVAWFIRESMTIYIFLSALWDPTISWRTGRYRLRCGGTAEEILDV

GalT-2 [1] = assay: GalT-2 activity in endothelial cells; assay type: cell-based, human
Description: Particularly preferred are GalT-2 assays conducted with the ASMCs and performed in accordance with previously described methods. See e.g., Chatterjee, S., and Castiglione, E. (1987) Biochem. Biophys. Acta, 923:136; and Chatterjee, (1991) S. Biochem. Biophys. Res Comm., 181:554.
Another preferred assay of the invention includes the following steps a) through d):
a) culturing a population of LacCer-responsive cells preferably to confluency in lipoprotein-deficient serum medium, e.g., about 1 mg lipoprotein-deficient serum/protein/ml of medium or less;
b) harvesting the cells preferably in a suitable dispersive buffer, e.g., cacodylate buffer,
c) incubating the harvested cells preferably with a detectably labeled molecule such as a detectably-labeled nucleoside diphosphate sugar donor such as [^14 C]-UDP-galactose typcially in an amount between about 0. 1 to 100 μCi; and
d) measuring LacCer formation as indicative of the activity of the GalT-2 enzyme.

vascular cells = conditions: reported in literature; cited from earlier work
GlcCer, LacCer = assay: Glycosphingolipid levels (HPLC) in thoracic aorta of balloon angioplasty rabbits; assay type: in vivo; conditions: rabbit thoracic aorta
Description: (§1) Experiments were performed on rabbits to examine the effects of D-PDMP on aortic stenosis following balloon angioplasty. The rabbits were given intramuscular injection of D-PDMP (10 mg/kg) or vehicle 24 hours prior to balloon angioplasty and this regimen was continued for 15 days. Next, the thoracic aorta was harvested, the glycosphingolipids was measured by HPLC analysis, and GalT-2 activity was measured employing assays described above.

intimal proliferation = assay: Intimal proliferation following balloon angioplasty in rabbits (aorta histology); assay type: in vivo; conditions: rabbit aorta; 10 mg/kg intramuscular daily for six weeks after balloon angioplasty
From the text: A rabbit model of restenosis accompanying an invasive surgical procedure such as balloon angioplasty is preferred. One suitable protocol involves administering to the rabbit a suitable vehicle or vehicle combined with one or more GalT-2 inhibitor compounds of interest. The amount of the GalT-2 inhibitor compound administered will vary depending on several parameters including the extent of damage associated with the surgical procedure of interest. In instances where balloon angioplasty is employed, the rabbit will typically receive a candidate GalT-2 inhibitor compound in a dose (e.g., i.m. or i.p.) of between about 0.5 to 100, preferably 1 to 20 and more preferably about 10 mg/kg body weight of the rabbit. A preferred dosage schedule provides for administration of a GalT-2 inhibitor compound starting 24 hurs prior to conducting an invasive surgical procedure, and then continuing administration of the GalT-2 inhibitor compound for 15 days following the surgical procedure. In other protocols, daily injections of the GalT-2 inhibitor compound may be made for about 2 to 12 weeks following the invasive surgical procedure. […] Subsequently, the rabbits are euthanized and a vessel removed for examination, preferably the aorta The vessel is then fixed with formalin and analyzed for proliferation of vascular endothelia, media and advantitia using standard histological procedures. […]

GalT-2 [2] = assay: GalT-2 activity in thoracic aorta of balloon angioplasty rabbits; assay type: in vivo; conditions: rabbit thoracic aorta; 10 mg/kg intramuscular, 15 days
Description: as §1

PMNs [3] = assay: ROM generation by PMNs (DCFH-DA); assay type: cell-based, human; conditions: 100 or 200 nmol/L LacCer
PMNs [4] = assay: Superoxide generation in PMNs (lucigenin); assay type: cell-based, human; conditions: SOD 500 U/ml, DPI 10 μM/L, apocyanin 90 μmol/L, about 15 minutes preincubation; 100 nmol LacCer 20 minutes
[5] = tested on: neutrophil adhesion to Eahy 926 cells; assay: Confocal microscopic study of adhesion of human neutrophils to Eahy 926 endothelial cells; assay type: cell-based; conditions: endothelial cells preincubated with 10 μM DPI or 15 mM NAC 30 minutes, then 5 μM LacCer 4 hours
[6] = tested on: PMN adhesion to unstimulated endothelial cells; assay: PMN-endothelial adhesion assay; assay type: cell-based, human; conditions: 100 nmol/L LacCer; anti-CD18 5 μg/ml; quinacrine increasing doses
Description: 12. PMN-Endothelial Adhesion Assay. PMNs were labeled fluorescently by incubation with 5 μmol/L Calcein-AM (Molecular Probes) in calcium-free PBS for 20 minutes at 37° C., washed and resuspended in Hanks' balanced salt solution (Gibco) containing 0.2% bovine serum albumin (BSA). These PMNs were then treated with LacCer (or vehicle, 0.05% DMSO), washed 3 times with PBS and then plated on the unstimulated ec monolayers, which had been grown to confluence in 24-well plates. The PMNs (600 μL of 2×10^6 /mL/well) then were incubated with the ecs for 30 minutes at 37° C. Non-adherent PMNs were then removed by gentle washing 3 times with PBS. The residual adherent PMNs (and ecs) were then lysed using 4mmol/L Zwittergent Calbiochem, La Jolla, Calif.) and the plates read on a fluorescence plate reader (Millipore) at EX 480 nm/EM 530 nm. The number of adherent PMNs were expressed as number of PMN/mm^2 ec monolayer, based on the mean fluorescent intensity of each PMN, as determined from a standard curve. 13. Additional Methods. LacCer, ceramide and […] (all from Sigma) were prepared as described in examples below, and used as putative agonists for the stimulation of PMN adhesion molecule expression, assayed by FACScan. […]

[7] = inhibitor 20 minutes, then 100 nmol/L LacCer 20 minutes, BPB 10 μmol/L
[8] = endothelial cells preincubated with D-PDMP
[9] = balloon angioplasty, 10 mg/kg intramuscular from 24 hours prior, continued for 15 days
[10] = endothelial cells, TNF-α as stimulant

## glucosylceramide [GIcCer]
Mac-1 (CD11b/CD18)
  Mac-1 expression on PMNs, other GSL: did not alter

## O=c1c(-c2ccc(O)cc2)coc2cc(O)cc(O)c12 [genistein]
Mac-1 (CD11b/CD18); [7]
  effect on LacCer-stimulated Mac-1 upregulation on PMNs: did not inhibit

## Oc1ncnc2[nH]ncc12 [allopurinol]
Eahy 926 cells
  effect on LacCer induced generation of O2- in endothelial cells: failed to inhibit

## CN[C@@H]1C[C@H]2O[C@@](C)([C@@H]1OC)n1c3ccccc3c3c4c(c5c6ccccc6n2c5c31)C(=O)NC4 [staurosporine]
Mac-1 (CD11b/CD18)
  effect on LacCer-stimulated Mac-1 upregulation on PMNs: did not inhibit

## CCCCCCCCCC(=O)N[C@H](CN1CCOCC1)[C@H](O)c1ccccc1 [D-PDMP, (1R, 2R)-1-phenyl-2-decanoylamino-3-morpholino-1-propanol]
ICAM-1; [8]
  ICAM-1 expression induced by TNF-α: concentration-dependent decrease
GlcT-1
  inhibition of GlcT-1: inhibits
GalT-2 [1]; [8]
  GalT-2 activity induced by TNF-α: concentration-dependent decrease
Vascular cells
  proliferation of vascular cells: reduces
GlcCer, LacCer; 10 mg/kg intramuscular, 15 days
  level of GicCer and LacCer: decrease significantly
GlcCer, LacCer; [9]
  GSL Concentration GlcCer: 6 μg/gm wet weight
  GSL Concentration LacCer: 10 μg/gm wet weight
Intimal proliferation
  intimal proliferation at the site of balloon angioplasty: complete absence of intimal proliferation
GalT-2 [2]
  decrease of GalT-2 activity versus vehicle: ~ 1.7 fold

## CC(=O)OCOC(=O)CN(CC(=O)OCOC(C)=O)c1ccccc1OCCOc1ccccc1N(CC(=O)OCOC(C)=O)CC(=O)OCOC(C)=O [BAPTA/AM]
Mac-1 (CD11b/CD18); [7]
  effect on LacCer-stimulated Mac-1 upregulation on PMNs: did not inhibit

## ceramide
Mac-1 (CD11b/CD18)
  Mac-1 expression on PMNs, other GSL: did not alter

## c1ccc2c(c1)[I+]c1ccccc1-2 [DPI, diphenyleneiodonium chloride]
ICAM-1
  effect on LacCer mediated stimulation of ICAM-1 expression: inhibited
PMNs [3]
  effect on neutrophil ROM generation induced by LacCer: completely blocked
Mac-1 (CD11b/CD18)
  effect on LacCer-stimulated Mac-1 upregulation on PMNs: did not inhibit
NADPH oxidase
  effect on NADPH oxidase activity in membrane preparations of LacCer stimulated cells: attenuated
PMNs [4]
  effect on LacCer induced superoxide generation in PMNs: relatively less inhibitory
Eahy 926 cells
  effect on LacCer induced generation of O2- in endothelial cells: failed to respond
[5]
  effect on LacCer-induced neutrophil adhesion: attenuated

## CCN(CC)CCCC(C)Nc1c2ccc(Cl)cc2nc2ccc(OC)cc12 (centres unmarked) [quinacrine, quinacrine dihydrochloride]
Mac-1 (CD11b/CD18); [7]
  effect on LacCer-stimulated Mac-1 upregulation on PMNs: did block
[6]
  effect on LacCer induced PMN adhesion: inhibited

## C=C(C)[C@H]1Cc2c(ccc3c2O[C@@H]2COc4cc(OC)c(OC)cc4[C@@H]2C3=O)O1 [rotenone]
NADPH oxidase; DPI 10 μM 30 minutes, rotenone 1 mM
  effect on NADPH oxidase activity in membrane preparations of LacCer stimulated cells: did not inhibit

## Cc1nnc2n1-c1sc(CCC(=O)N3CCOCC3)cc1C(c1ccccc1Cl)=NC2 [WEB 2086]
Mac-1 (CD11b/CD18)
  effect on LacCer-stimulated Mac-1 upregulation on PMNs: No significant inhibition

## CC(=O)N[C@@H](CS)C(=O)O [NAC, N-acetylcysteine]
ICAM-1
  effect on LacCer mediated stimulation of ICAM-1 expression: inhibited
PMNs [3]
  effect on neutrophil ROM generation induced by LacCer: inhibited
Mac-1 (CD11b/CD18); [7]
  effect on LacCer-stimulated Mac-1 upregulation on PMNs: did not inhibit
Eahy 926 cells
  effect on LacCer induced generation of O2- in endothelial cells: reduced
[5]
  effect on LacCer-induced neutrophil adhesion: attenuated

## COc1cc(C(C)=O)ccc1O [apocyanin]
PMNs [4]
  effect on LacCer induced superoxide generation in PMNs: relatively less inhibitory

## TNF-α
ICAM-1; [10]
  stimulation of ICAM-1 expression: concentration-dependent stimulation
GalT-2 [1]; [10]
  increase in GalT-2 activity: 1.7 fold

## S=C(S)N1CCCC1 [PDTC]
ICAM-1
  effect on LacCer mediated stimulation of ICAM-1 expression: inhibited
